According to patent US10253002B2, “Compounds and methods of treating infections” (Neoculi Pty Ltd., priority 2013, dated 2019):
Values after ≈ are worked out from the molar mass of the structure shown. Like-named read-outs stand apart in the source and are kept apart here.

Key:
Streptococcus pneumoniae = experiment: Broth microdilution MIC (CLSI) in 4% LHB-CAMHB, Example 1; format: cell-based
Experimental: The powder was dissolved in 10 mL DMSO and 1 mL volumes were aliquoted into eppendorf tubes and stored at -80° C. […] Serial dilutions were prepared in 96 well plates were set up in a safety cabinet according to methods standard in the art. Briefly: 90 μL of the working antibiotic solution was added to each well in Column 12 of the plate, and mixed well, before 90 μL was transferred to column 11. The solutions were mixed again, and then transferred to the next column as before, continuing the dilutions through to column 3. Mixing the well requires the pick up and expulsion of 90 μL in each well 3-4 times before picking up and transferring the 90 μL to the next well. […] The bacterial solution was placed into a sterile trough and 10 μL of bacterial solution added into wells 2 through to 12 on each required row (dilution of 1:10, with final concentration of bacteria in wells=5×10^5 CFU/mL). The tray was sealed and incubated at 37° C. for 18-24 h. The purity of bacterial suspension was confirmed by streaking out 50 μL of the 1:20 dilution onto a SBA plate, which was incubated for 37° C. for 18 h and examined. Viable counts were carried out to ensure that the correct concentration of bacteria and been added to the wells. […] The following day the number of colonies on the plates was counted and the average count in 100 μL obtained. The study was multiplied by 10 to obtain a viable bacterial count per mL. Minimum inhibitory concentrations (μg/mL) were determined using the broth microdilution method recommended by the Clinical and Laboratory Standards Institute (CLSI) (Methods for Dilution Antimicrobial Susceptibility Tests for Bacteria That Grow Aerobically; Approved Standard-Seventh Edition. CLSI M7-A7, 2006; Performance Standards for Antimicrobial Disk and Dilution Susceptibility Tests for Bacteria Isolated from Animals; Approved Standard-Second Edition. CLSI […]-A2, 2002; Performance Standards for Antimicrobial Susceptibility Testing; CLSI M2-A9, 2006). […] Bacterial growth (turbidity) in the wells with antimicrobial was compared with the amount of growth (turbidity) in the growth-control well (containing no antimicrobial). All isolates were tested in duplicate, if there was a difference of greater than one two-fold dilution in the results, the test was repeated a third time. The purity of the isolates was closely monitored during testing by subculturing the prepared bacterial inoculum onto SBA. Control organisms (Enterococcus faecalis strain ATCC 29212, S. aureus strain ATCC 29213 and S. pneumoniae strain ATCC 49619) were used throughout the testing to monitor quality control. […] The MIC50, MIC90 and MIC range (minimum and maximum) were calculated for each of the bacterial groups.

Escherichia coli = experiment: Broth microdilution MIC, Example 7 (NCL812 and analogues); format: cell-based
[1] = Streptococcus pneumoniae, Strep. pneumoniae 3, Test 2, read-out: MIC
[2] = Streptococcus pneumoniae, Strep. pneumoniae 16, Test 1, read-out: MIC
[3] = Streptococcus pneumoniae, Strep. pneumoniae 16, Test 2, read-out: MIC
[4] = Escherichia coli, read-out: MIC (μg/ml) at 24 hours, E. coli, 24 hours, 1st and 2nd replicate rows

## CC1(C)S[C@@H]2[C@H](NC(=O)[C@H](N)c3ccccc3)C(=O)N2[C@H]1C(=O)O [Ampicillin]
Streptococcus pneumoniae; Str. pneumoniae, 20 isolates
  MIC90: 0.25 µg/mL (≈ 0.715 µM)
Streptococcus pneumoniae; Streptococcus pneumoniae isolates of Table 5, Test 1, read-out: MIC90
  MIC90: 0.25 µg/mL (≈ 0.715 µM)
Streptococcus pneumoniae; Streptococcus pneumoniae isolates of Table 5, Test 2
  MIC90: 0.25 µg/mL (≈ 0.715 µM)
Streptococcus pneumoniae; Streptococcus pneumoniae, ATCC49619, S. pneumoniae strain ATCC 49619, read-out: MIC of control strain (internal quality control)
  MIC: 0.06 µg/mL
Streptococcus pneumoniae; Streptococcus pneumoniae, ATCC49619, Strep. pneumoniae ATCC 49619, Test 1, read-out: MIC
  MIC: < 0.25 µg/mL
Streptococcus pneumoniae; Streptococcus pneumoniae, ATCC49619, Strep. pneumoniae ATCC 49619, Test 2, read-out: MIC
  MIC: < 0.25 µg/mL
Streptococcus pneumoniae; Streptococcus pneumoniae, Strep. pneumoniae 1, Test 1, read-out: MIC
  MIC: < 0.25 µg/mL
Streptococcus pneumoniae; Streptococcus pneumoniae, Strep. pneumoniae 1, Test 2, read-out: MIC
  MIC: < 0.26 µg/mL
Streptococcus pneumoniae; Streptococcus pneumoniae, Strep. pneumoniae 2, Test 1, read-out: MIC
  MIC: < 0.26 µg/mL
Streptococcus pneumoniae; Streptococcus pneumoniae, Strep. pneumoniae 2, Test 2, read-out: MIC
  MIC: < 0.25 µg/mL
Streptococcus pneumoniae; Streptococcus pneumoniae, Strep. pneumoniae 3, Test 1, read-out: MIC
  MIC: < 0.25 µg/mL
Streptococcus pneumoniae; [1]
  MIC: < 0.25 µg/mL
Streptococcus pneumoniae; Streptococcus pneumoniae, Strep. pneumoniae 4, Test 1, read-out: MIC
  MIC: < 0.25 µg/mL
Streptococcus pneumoniae; Streptococcus pneumoniae, Strep. pneumoniae 4, Test 2, read-out: MIC
  MIC: < 0.25 µg/mL
Streptococcus pneumoniae; Streptococcus pneumoniae, Strep. pneumoniae 5, Test 1, read-out: MIC
  MIC: < 0.25 µg/mL
Streptococcus pneumoniae; Streptococcus pneumoniae, Strep. pneumoniae 5, Test 2, read-out: MIC
  MIC: < 0.26 µg/mL
Streptococcus pneumoniae; Streptococcus pneumoniae, Strep. pneumoniae 6, Test 1, read-out: MIC
  MIC: < 0.26 µg/mL
Streptococcus pneumoniae; Streptococcus pneumoniae, Strep. pneumoniae 6, Test 2, read-out: MIC
  MIC: < 0.25 µg/mL
Streptococcus pneumoniae; Streptococcus pneumoniae, Strep. pneumoniae 7, Test 1, read-out: MIC
  MIC: < 0.25 µg/mL
Streptococcus pneumoniae; Streptococcus pneumoniae, Strep. pneumoniae 7, Test 2, read-out: MIC
  MIC: < 0.26 µg/mL
Streptococcus pneumoniae; Streptococcus pneumoniae, Strep. pneumoniae 8, Test 1, read-out: MIC
  MIC: < 0.25 µg/mL
Streptococcus pneumoniae; Streptococcus pneumoniae, Strep. pneumoniae 8, Test 2, read-out: MIC
  MIC: < 0.25 µg/mL
Streptococcus pneumoniae; Streptococcus pneumoniae, Strep. pneumoniae 9, Test 1, read-out: MIC
  MIC: < 0.26 µg/mL
Streptococcus pneumoniae; Streptococcus pneumoniae, Strep. pneumoniae 9, Test 2, read-out: MIC
  MIC: < 0.25 µg/mL
Streptococcus pneumoniae; Streptococcus pneumoniae, Strep. pneumoniae 10, Test 1, read-out: MIC
  MIC: < 0.06 µg/mL
Streptococcus pneumoniae; Streptococcus pneumoniae, Strep. pneumoniae 10, Test 2, read-out: MIC
  MIC: < 0.06 µg/mL
Streptococcus pneumoniae; Streptococcus pneumoniae, Strep. pneumoniae 12, Test 1, read-out: MIC
  MIC: < 0.06 µg/mL
Streptococcus pneumoniae; Streptococcus pneumoniae, Strep. pneumoniae 12, Test 2, read-out: MIC
  MIC: < 0.06 µg/mL
Streptococcus pneumoniae; Streptococcus pneumoniae, Strep. pneumoniae 13, Test 1, read-out: MIC
  MIC: < 0.06 µg/mL
Streptococcus pneumoniae; Streptococcus pneumoniae, Strep. pneumoniae 13, Test 2, read-out: MIC
  MIC: < 0.06 µg/mL
Streptococcus pneumoniae; Streptococcus pneumoniae, Strep. pneumoniae 14, Test 1, read-out: MIC
  MIC: < 0.06 µg/mL
Streptococcus pneumoniae; Streptococcus pneumoniae, Strep. pneumoniae 14, Test 2, read-out: MIC
  MIC: < 0.06 µg/mL
Streptococcus pneumoniae; Streptococcus pneumoniae, Strep. pneumoniae 15, Test 1, read-out: MIC
  MIC: 0.25 µg/mL (≈ 0.715 µM)
Streptococcus pneumoniae; Streptococcus pneumoniae, Strep. pneumoniae 15, Test 2, read-out: MIC
  MIC: 0.25 µg/mL (≈ 0.715 µM)
Streptococcus pneumoniae; [2]
  MIC: 2 µg/mL (≈ 5.72 µM)
Streptococcus pneumoniae; [3]
  MIC: 2 µg/mL (≈ 5.72 µM)
Streptococcus pneumoniae; Streptococcus pneumoniae, Strep. pneumoniae 18, Test 1, read-out: MIC
  MIC: 0.25 µg/mL (≈ 0.715 µM)
Streptococcus pneumoniae; Streptococcus pneumoniae, Strep. pneumoniae 18, Test 2, read-out: MIC
  MIC: 0.25 µg/mL (≈ 0.715 µM)
Streptococcus pneumoniae; Streptococcus pneumoniae, Strep. pneumoniae 19, Test 1, read-out: MIC
  MIC: 0.25 µg/mL (≈ 0.715 µM)
Streptococcus pneumoniae; Streptococcus pneumoniae, Strep. pneumoniae 19, Test 2, read-out: MIC
  MIC: 0.25 µg/mL (≈ 0.715 µM)
Streptococcus pneumoniae; Streptococcus pneumoniae, Strep. pneumoniae 20, Test 1, read-out: MIC
  MIC: 2 µg/mL (≈ 5.72 µM)
Streptococcus pneumoniae; Streptococcus pneumoniae, Strep. pneumoniae 20, Test 2, read-out: MIC
  MIC: 2 µg/mL (≈ 5.72 µM)
Streptococcus pneumoniae; Streptococcus pneumoniae, Str. pneumoniae, 20 isolates
  MIC50: < 0.25 µg/mL
Streptococcus pneumoniae; Streptococcus pneumoniae, Str. pneumoniae, 20 isolates, read-out: MIC mode
  MIC: < 0.25 µg/mL
Escherichia coli; E. coli, 2nd
  MIC: 4 µg/mL (≈ 11.4 µM)
Escherichia coli; [4]
  MIC: 4 µg/mL (≈ 11.4 µM)
Escherichia coli; Escherichia coli, E. coli, 1st, read-out: MIC
  MIC: 4 µg/mL (≈ 11.4 µM)

## N=C(N/N=C/c1ccc(Cl)cc1)N/N=C/c1ccc(Cl)cc1 [NCL812, 1,3-bis[(E)-(4-chlorophenyl)methyleneamino]guanidine]
Streptococcus pneumoniae; [1]
  MIC: 2 µg/mL (≈ 5.98 µM)
Streptococcus pneumoniae; [2]
  MIC: 0.5 µg/mL (≈ 1.5 µM)
Streptococcus pneumoniae; [3]
  MIC: 1 µg/mL (≈ 2.99 µM)
Escherichia coli; 24 hours, 1st and 2nd replicate rows
  MIC (μg/ml) at 24 hours, E. coli: >128 µg/mL
Escherichia coli; E. coli, 1st
  MIC: >128 µg/mL
Escherichia coli; E. coli, 2nd
  MIC: >128 µg/mL
Escherichia coli; [4]
  MIC: > 128 µg/mL
Escherichia coli; Escherichia coli, read-out: MIC
  MIC: > 128 µg/mL
